Laboratory results as given in US20220110985A1, “NUTRITIONAL COMPOSITION COMPRISING 2'FUCOSYLLACTOSE AND 3'GALACTOSYLLACTOSE” (N.V. Nutricia, priority 2019, published 2022).

Key:
[1] = system: infant intestinal microbiota; assay: quad-SHIME infant intestinal microbiota model (SCFA, glycoprofile); type: cell-based, human infant faecal inoculum; set-up: Butyrate (Mean ± SD) / Iso-Butyrate (Mean ± SD) / Acetate (Mean ± SD): unit not given here; conditions: distal colon
From the text: A faecal sample from a healthy infant born via C-section, exclusively breastfed with no history of antibiotic usage, was used as inoculum to simulate the infant intestinal microbiota in the colon compartments of a quad-SHIME®—a dynamic model of the human gastrointestinal tract comprises 4 SHIME® units running in parallel and each SHIME® unit is composed of 3 reactors simulating the stomach and small intestine, proximal and distal colons.

[2] = system: Salmonella enteriditis S29; assay: Fecal slurry fermentation spiked with pathogens: Salmonella; type: cell-based
Method: Anaerobic fermentation of fecal slurry samples was tested in a BioLector Pro microfluidics mini multifermentor. Faecal slurry samples were collected from breast fed infants and from formula fed infants. These faecal slurry samples were processed by adding 0.6 grams feces in 40 ml Baby Reichardt V.6 medium+mucus+Ammonium sulfate+lactate and acetate. The resulting solutions were inserted to the BioLector Pro microfluidics mini multifermentor. The test legs were supplemented with 3-GL, 2′-FL, 3′-GL+2′-FL, and GOS/FOS. The control leg was supplemented with sterile water.
In addition the test legs were supplemented with Clostridium difficile C153 (difficile agar), Salmonella enteriditis S29 (XLD agar), Cronobacter sakasakii E71 (chromogenic agar) or Klebsiella pneumonia K2 (Simons citrate inositol agar). For every NDO and for the control also a pathogen free culture was prepared.
A 32 well plate that can handle low pH was used. The wells of this plate were filled with fecal solution. 2.5% (w/v) of the different sterile carbohydrate solutions (3′-GL, 2′-FL, 2′-FL/3′-GL (2.0+0.5%). and Glucose were added to the fecal slurry according to a template. […]

SMILES: C[C@@H]1O[C@@H](O[C@H]2[C@H](O[C@H]3[C@H](O)[C@@H](O)C(O)O[C@@H]3CO)O[C@H](CO)[C@H](O)[C@@H]2O)[C@@H](O)[C@H](O)[C@@H]1O (stereo partly drawn) [2′-FL, α-L-Fuc-(1→2)-β-D-Gal-(1→4)-D-Glc]
- Acetate (Mean ± SD) ([1]; D1-D3): 38.67 ± 10.25
- Butyrate (Mean ± SD) ([1]; D1-D3): 0 ± 0
- Iso-Butyrate (Mean ± SD) ([1]; D1-D3): 0 ± 0
- Propionate (Mean ± SD) ([1]; D1-D3): 10.17 ± 3.01
- Acetate (Mean ± SD) ([1]; D4-D11): 26.22 ± 0.97
- Butyrate (Mean ± SD) ([1]; D4-D11): 0.74 ± 0.49
- Iso-Butyrate (Mean ± SD) ([1]; D4-D11): 0.68 ± 0.75
- Propionate (Mean ± SD) ([1]; D4-D11): 6.58 ± 0.49
- Acetate (Mean ± SD) ([1]; D12-D15): 22.96 ± 1.04
- Butyrate (Mean ± SD) ([1]; D12-D15): 0.99 ± 0.09
- Iso-Butyrate (Mean ± SD) ([1]; D12-D15): 0.93 ± 0.21
- Propionate (Mean ± SD) ([1]; D12-D15): 6.13 ± 0.63
- butyrate generation, in words ([1]; relative to control and scGOS/lcFOS groups): generated earlier in the distal colon and at a higher concentration
- Salmonella growth ([2]; inoculum of baby 1, spiked): most restricted
- Salmonella growth ([2]; inoculum of baby 2, spiked): most restricted
